The source of these data is ChEMBL document CHEMBL1201862, “PubChem BioAssay data set” (2004).

Molecules are shown by their SMILES.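 96-well plates; 48 h exposure; 5 concentrations. Endpoints by linear interpolation between flanking doses. Not reached: highest tested concentration assigned. GI50 = concentration required for 50% inhibition of growth.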 Activity calls are given as the source filed them. Cut-off read from the data, not from the text of the source: active = GI50 up to about 1.1 µM and inactive = higher.

Common to all, as to test: DTP human tumour cell line panel, 48 h
The subject of assay [1] is HOP-92.
The subject of assay [2] is SK-OV-3.
Assay [3] concerns IGROV-1.
The subject of assay [4] is LOX IMVI.
Assay [5] relates to NCI-H522.
For assay [6], the system named is SF-295.
Assay [7] has as its system K562.
For assay [8], the system named is OVCAR-4.
The test system of assay [9] is NCI-H226.
The test system of assay [10] is UACC-62.
For assay [11], the system named is UO-31.
The test system of assay [12] is M14.
Assay [13] deals with EKVX.
The subject of assay [14] is ACHN.
For assay [15], the system named is SNB-19.
For assay [16], the system named is HL-60.
In assay [17] the test system is OVCAR-5.
The subject of assay [18] is OVCAR-3.
In assay [19] the test system is UACC-257.
Assay [20] has as its system RPMI-8226.

Broadly, the GI50 is the concentration at which growth is held to half of that of the control. Take `c1ccc2sc(C3(N4CCCC4)CCCCCC3)cc2c1`: the GI50 is 12.6 µM (inactive) in assay [1]; 16.8 µM (inactive) in assay [2]; 19.1 µM (inactive) in assay [3]; 14.7 µM (inactive) in [4]; 18.7 µM (inactive) in assay [5]; 15 µM (inactive) in assay [6]. Further, the GI50 was 17.2 µM (inactive) in assay [7]; 13.4 µM (inactive) in assay [8]; 21.3 µM (inactive) in assay [9]; 16.2 µM (inactive) in assay [10]; 12.8 µM (inactive) in assay [11]; 14.8 µM (inactive) in assay [12]. In addition, the GI50 was 17.3 µM (inactive) in [13]; 23.6 µM (inactive) in [14]; 14 µM (inactive) in assay [15]; 17.4 µM (inactive) in assay [16]; 11.7 µM (inactive) in [17]; 14.3 µM (inactive) in assay [18]. The GI50 in assay [19] was 16 µM (inactive).

Turning to `CC(C)Oc1c(C2(c3ccccc3O)SCCCS2)c(=O)c1=O`, the GI50 was 19.7 µM (inactive) in [1]; > 100 µM (inactive) in assay [2]; 30.3 µM (inactive) in assay [3]; > 100 µM (inactive) in assay [4]; 23.6 µM (inactive) in assay [5]; > 100 µM (inactive) in assay [6]. Also, the GI50 in [8] is > 100 µM (inactive); in assay [9], 63.5 µM (inactive); in assay [10], 98.6 µM (inactive); in assay [11], 47.9 µM (inactive); in assay [12] it was > 100 µM (inactive); in assay [13] it was 55.5 µM (inactive). Further, the GI50 was > 100 µM (inactive) in assay [14]; 73.3 µM (inactive) in assay [15]; 54.2 µM (inactive) in [16]; 38.7 µM (inactive) in [17]; 79.3 µM (inactive) in assay [18]; > 100 µM (inactive) in assay [19].

With `COc1cc(/C=C2\CCC(C)c3c2nc(N)c(C#N)c3-c2cc(OC)c(OC)c(OC)c2)cc(OC)c1OC` (stereo not drawn), the GI50 is 67.5 µM (inactive) in assay [1]; > 100 µM (inactive) in assay [2]; 0.984 µM (active) in assay [3]; 41.5 µM (inactive) in assay [4]; 28.6 µM (inactive) in assay [7]; 31.5 µM (inactive) in assay [8]. Also, the GI50 in assay [10] is > 100 µM (inactive); in assay [12] it was 45.7 µM (inactive); in [13], 34.5 µM (inactive); in assay [14], > 100 µM (inactive); in assay [15], 54 µM (inactive); in assay [16], 49.1 µM (inactive). For the same compound, the GI50 in assay [17] was > 100 µM (inactive); in assay [20] it was 56.2 µM (inactive); in assay [19], > 100 µM (inactive).

`O=c1c(Cc2ccc(Cl)cc2)nnc2sc(-c3ccc([N+](=O)[O-])cc3)nn12`: the GI50 in assay [1] is 48.1 µM (inactive); in [2] it was 38.3 µM (inactive); in [3], 36.9 µM (inactive); in assay [4], 29.2 µM (inactive); in assay [6], 45.2 µM (inactive); in assay [7], 15.6 µM (inactive). The GI50 is 28.7 µM (inactive) in [8]; 14.2 µM (inactive) in [10]; 21.3 µM (inactive) in assay [11]; 16.9 µM (inactive) in [12]; 23.2 µM (inactive) in assay [13]; 25.9 µM (inactive) in [14]. For the same compound, the GI50 in [15] was > 100 µM (inactive); in assay [16] it was 24.4 µM (inactive); in assay [17] it was 17.5 µM (inactive); in [20], 21.3 µM (inactive); in assay [19] it was 17.1 µM (inactive).

Consider `C/C=C(C)/C=C/CC(C)CCC=C(C)C` (stereo not drawn), for which the GI50 in [1], in [2], in assay [3], in [4], in [6] and in assay [7] was > 100 µM (inactive) throughout. In addition, the GI50 was 92.9 µM (inactive) in [8]; > 100 µM (inactive) in assay [9]; > 100 µM (inactive) in [10]; > 100 µM (inactive) in assay [11]; > 100 µM (inactive) in assay [12]; > 100 µM (inactive) in assay [13]. Besides, the GI50 was > 100 µM (inactive) in assay [14]; > 100 µM (inactive) in [15]; 44.5 µM (inactive) in [16]; > 100 µM (inactive) in [17]; > 100 µM (inactive) in assay [18]; > 100 µM (inactive) in assay [19].

For `COc1ccc(-c2[nH]c3c4c(nc5c(c24)C(=O)CC(C)(C)C5)CC(C)(C)C3)cc1`, the GI50 in assay [1] was 39.6 µM (inactive); in assay [2], > 100 µM (inactive); in assay [4], 68.7 µM (inactive); in [5], 54.5 µM (inactive); in [6] it was 57.4 µM (inactive); in assay [7], 28.4 µM (inactive). Besides, the GI50 in assay [8] is 68.5 µM (inactive); in [9], 68.7 µM (inactive); in [10], > 100 µM (inactive); in assay [11], 61.1 µM (inactive); in assay [12], > 100 µM (inactive); in assay [13] it was 47.3 µM (inactive). In addition, the GI50 is 95.5 µM (inactive) in assay [14]; > 100 µM (inactive) in [15]; 55.1 µM (inactive) in assay [16]; > 100 µM (inactive) in assay [17]; 47.3 µM (inactive) in assay [18]; 68.5 µM (inactive) in assay [19].

Take `COC(=O)CCSC1=CC(=O)c2nc3ccccc3c3ccnc1c23`: the GI50 was 25.7 µM (inactive) in assay [1]; 54.3 µM (inactive) in [2]; 16.7 µM (inactive) in assay [3]; 1.39 µM (inactive) in [5]; 58.7 µM (inactive) in [6]; 8.47 µM (inactive) in assay [7]. Moreover, the GI50 in assay [8] is 19.8 µM (inactive); in assay [9], 47.1 µM (inactive); in assay [10], 8.09 µM (inactive); in [11] it was 15.3 µM (inactive); in assay [12], 21.9 µM (inactive); in [13], 18.9 µM (inactive). In addition, the GI50 was 19.4 µM (inactive) in assay [14]; > 100 µM (inactive) in [15]; 3.61 µM (inactive) in assay [16]; 42.7 µM (inactive) in assay [17]; 23.6 µM (inactive) in [20]; 2.68 µM (inactive) in [18]. Further, in assay [19], the GI50 is 17.2 µM (inactive).

With `CCOC(=O)c1c(C)noc1/N=N/N(CCO)CCO`, the GI50 was 24.9 µM (inactive) in [1]; 57.4 µM (inactive) in assay [2]; 36.6 µM (inactive) in assay [3]; 32.4 µM (inactive) in assay [4]; 24.2 µM (inactive) in assay [5]; 23.7 µM (inactive) in [6]. Moreover, the GI50 in assay [7] was 29 µM (inactive); in [8], 30.2 µM (inactive); in [9], 23.6 µM (inactive); in [10], 23.9 µM (inactive); in [11] it was 25.5 µM (inactive); in assay [12], 49.5 µM (inactive). The GI50 in assay [13] is 39.9 µM (inactive); in assay [14], 29 µM (inactive); in assay [15] it was 37.2 µM (inactive); in [16], 26.1 µM (inactive); in [17], > 100 µM (inactive); in assay [18], 19.7 µM (inactive). Besides, the GI50 in assay [19] was 25.6 µM (inactive).
